Results from ChEMBL document CHEMBL1201862, “PubChem BioAssay data set” (2004).
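Results reflect a 48-hour exposure of cells in 96-well plates to compound at five concentrations. GI50: concentration for 50% inhibition of growth.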 Active and inactive are the calls of the source. Rule as the data show it: active = GI50 up to about 1.1 µM and inactive = higher.

Legend:
Assay in all cases: growth of human tumour cells (NCI), 48 h
SK-OV-3 = tested on: SK-OV-3
SF-268 = tested on: SF-268
SF-539 = tested on: SF-539
NCI-H23 = tested on: NCI-H23
HCT-116 = tested on: HCT-116
M14 = tested on: M14
UACC-257 = tested on: UACC-257
CAKI-1 = tested on: CAKI-1
TK-10 = tested on: TK-10
SN12C = tested on: SN12C
K562 = tested on: K562
MOLT-4 = tested on: MOLT-4
IGROV-1 = tested on: IGROV-1
SK-MEL-5 = tested on: SK-MEL-5
ACHN = tested on: ACHN
CCRF-CEM = tested on: CCRF-CEM
HOP-62 = tested on: HOP-62
HCT-15 = tested on: HCT-15
RXF 393 = tested on: RXF 393

SMILES | GI50 (SK-OV-3) | GI50 (SF-268) | GI50 (SF-539) | GI50 (NCI-H23) | GI50 (HCT-116) | GI50 (M14) | GI50 (UACC-257) | GI50 (CAKI-1) | GI50 (TK-10) | GI50 (SN12C) | GI50 (K562) | GI50 (MOLT-4) | GI50 (IGROV-1) | GI50 (SK-MEL-5) | GI50 (ACHN) | GI50 (CCRF-CEM) | GI50 (HOP-62) | GI50 (HCT-15) | GI50 (RXF 393)
CC1(C)N=C(/C(Cl)=[N+](/[O-])C(=O)c2ccc(Cl)cc2)C(C)(C)N1O | > 100 µM (inactive) | 29.4 µM (inactive) | 21.3 µM (inactive) | 22.1 µM (inactive) | 16.3 µM (inactive) | 18.2 µM (inactive) | 18.2 µM (inactive) | 19.2 µM (inactive) | 19.8 µM (inactive) | 23.8 µM (inactive) | 5.51 µM (inactive) | > 10 µM (inactive) | 41 µM (inactive) | 20 µM (inactive) | 38.5 µM (inactive) | 7.52 µM (inactive) | 39 µM (inactive) | 19.8 µM | 22 µM (inactive)
CCOC(=O)C1=NN(c2ccc(C)cc2)C2=CC(C)=NN(C)C(=S)N21 | 70.3 µM (inactive) | 85.5 µM (inactive) | 64 µM (inactive) | 30.1 µM (inactive) | 31.1 µM (inactive) | > 100 µM (inactive) | > 100 µM (inactive) | 24.4 µM (inactive) | 36.1 µM (inactive) | > 100 µM (inactive) | > 100 µM (inactive) | > 100 µM (inactive) | > 100 µM (inactive) | > 100 µM (inactive) | 43.5 µM (inactive) | > 100 µM (inactive) |  | > 100 µM | 12.6 µM (inactive)
O=c1[nH]c(=O)n(C2CC(O)C(CO)O2)cc1C#Cc1ccc(F)cc1 (centres undefined) | > 100 µM (inactive) | > 100 µM (inactive) | > 100 µM (inactive) | > 100 µM (inactive) |  | > 100 µM (inactive) | > 100 µM (inactive) | > 100 µM (inactive) |  | > 100 µM (inactive) | > 100 µM (inactive) | > 100 µM (inactive) | > 100 µM (inactive) | > 100 µM (inactive) | > 100 µM (inactive) | > 100 µM (inactive) | > 100 µM (inactive) | > 100 µM | 
Cc1ccc(NC(=O)CSc2nnc(-c3ccc(/N=C\c4ccc(Cl)cc4)cc3)o2)cc1 | > 100 µM (inactive) | > 100 µM (inactive) |  | > 100 µM (inactive) | > 100 µM (inactive) | > 100 µM (inactive) | > 100 µM (inactive) |  | > 100 µM (inactive) | > 100 µM (inactive) | > 100 µM (inactive) | > 100 µM (inactive) |  | > 100 µM (inactive) | > 100 µM (inactive) | > 100 µM (inactive) | > 100 µM (inactive) | > 100 µM | > 100 µM (inactive)
COCOC1CCCC[C@@]1(OCCOCCO[C@@]1(c2ccccc2)CCCC[C@H]1OCOC)c1ccccc1 (some centres undefined) | 67.9 µM (inactive) | > 100 µM (inactive) |  | > 100 µM (inactive) | > 100 µM (inactive) | 44.7 µM (inactive) | > 100 µM (inactive) | 41.1 µM (inactive) | 70.6 µM (inactive) | > 100 µM (inactive) | > 100 µM (inactive) | > 10 µM (inactive) | > 100 µM (inactive) |  | 87.7 µM (inactive) | > 100 µM (inactive) | > 100 µM (inactive) | > 10 µM | 23.1 µM (inactive)
Cc1cccc(C)c1NC(=O)/C(CC(=O)CC(c1ccccc1)c1c(O)c2ccccc2oc1=O)=N/O (centres undefined) | > 100 µM (inactive) | > 100 µM (inactive) | > 100 µM (inactive) | > 100 µM (inactive) | > 100 µM (inactive) | > 100 µM (inactive) | > 100 µM (inactive) | > 100 µM (inactive) | > 100 µM (inactive) | > 100 µM (inactive) |  | > 100 µM (inactive) | > 100 µM (inactive) | > 100 µM (inactive) | > 100 µM (inactive) | > 100 µM (inactive) | > 100 µM (inactive) | > 100 µM | > 100 µM (inactive)
